{"source": "patent US11602567B2", "about": "“Methods for modulating RNA splicing” (PTC Therapeutics, Inc., priority 2015, dated 2023)", "assay_in_all_cases": "Endpoint RT-PCR analysis of alternatively spliced mRNAs in cultured cells", "assay_type_in_all_cases": "cell-based, human", "key": {"DIAPH3 exon 11": {"test_system": "DIAPH3 exon 11", "settings": "DIAPH3 exon 11, sequence TTGAatatcc; GM03813 cells, 24 hours; without compound 100", "method": "(§1) Endpoint RT-PCR Analysis of Alternatively Spliced mRNAs in Cultured Cells GM03813 cells derived from a patient with SMA type I (Coriell Institute) were plated at 5,000 cells/well in 200 μl DMEM with 10% FBS in 96-well plates, and incubated for 6 hours in a cell culture incubator (37° C., 5% CO2, 100% relative humidity). Cells were then treated with Compound 702 at different concentrations (in 0.5% DMSO) in duplicate for 24 hours. After removal of the supernatant, cells were lysed in Cells-To-Ct lysis buffer (Life Technologies, Inc.). Reverse transcription was performed using 5 μl of cell lysate and the iScript RT enzyme kit (Bio-Rad Laboratories, Inc). PCR was performed using 5 μl of cDNA and Platinum Taq HiFi DNA Polymerase (Life Technologies, Inc.) under the following PCR conditions: Step 1: 94° C. (2 min), Step 2: 94° C. (30 sec), Step 3: 55° C. (30 sec), Step 4: 68° C. (1 min), then repeat Steps 2 to 4 for 33 cycles, then hold at 4° C. PCR products were separated on 2% agarose E-gels, stained with ethidium bromide and visualized using a gel imager (UVP). [table]"}, "COL5A2 exon 13": {"test_system": "COL5A2 exon 13", "settings": "COL5A2 exon 13, sequence CCGAgtaagt; GM03813 cells, 24 hours; without compound 100", "method": "as §1"}, "GALC exon 5": {"test_system": "GALC exon 5", "settings": "GALC exon 5, sequence TGGAgttagt; GM03813 cells, 24 hours; without compound 90", "method": "as §1"}, "SMN2 exon 5": {"test_system": "SMN2 exon 5", "settings": "SMN2 exon 5, sequence ACCAgtaagt; GM03813 cells, 24 hours; without compound 50", "method": "as §1"}, "APLP2 exon 7": {"test_system": "APLP2 exon 7", "settings": "APLP2 exon 7, sequence ATGAgtaagt; GM03813 cells, 24 hours; without compound 10", "method": "as §1"}, "LAMA2 exon 5": {"test_system": "LAMA2 exon 5", "settings": "LAMA2 exon 5, sequence AAGAgtaagt; GM03813 cells, 24 hours; without compound 100", "method": "as §1"}, "COL1A1 exon 30": {"test_system": "COL1A1 exon 30", "settings": "COL1A1 exon 30, sequence AAGAgtaagt; GM03813 cells, 24 hours; without compound 60", "method": "as §1"}, "COL1A1 exon 46": {"test_system": "COL1A1 exon 46", "settings": "COL1A1 exon 46, sequence CCGAgtaagt; GM03813 cells, 24 hours; without compound 100", "method": "as §1"}, "PRKDC exon 11": {"test_system": "PRKDC exon 11", "settings": "PRKDC exon 11, sequence AGGAgtatgt; GM03813 cells, 24 hours; without compound 100", "method": "as §1"}, "COL1A1 exon 32": {"test_system": "COL1A1 exon 32", "settings": "COL1A1 exon 32, sequence CAGAgtaagt; GM03813 cells, 24 hours; without compound 90", "method": "as §1"}, "COL3A1 exon 10": {"test_system": "COL3A1 exon 10", "settings": "COL3A1 exon 10, sequence CAGAgtaagt; GM03813 cells, 24 hours; without compound 100", "method": "as §1"}, "COL1A2 exon 21": {"test_system": "COL1A2 exon 21", "settings": "COL1A2 exon 21, sequence GAGAgtaggt; GM03813 cells, 24 hours; without compound 100", "method": "as §1"}, "COL3A1 exon 46": {"test_system": "COL3A1 exon 46", "settings": "COL3A1 exon 46, sequence CAGAgtaagt; GM03813 cells, 24 hours; without compound 100", "method": "as §1"}, "SMN2 exon 7": {"test_system": "SMN2 exon 7", "settings": "SMN2 exon 7, sequence AGGAgtaagt; GM03813 cells, 24 hours; % inclusion of exon without compound 40", "method": "as §1"}, "[1]": {"test_system": "FOXM1 exon 7A […]C (34 nucleotides)", "settings": "sequence ATGAgtaagt, GM03813 cells, 24 hours, without compound 0", "method": "as §1"}, "LARP7 exon 1": {"test_system": "LARP7 exon 1", "settings": "LARP7 exon 1, sequence CGGAgtaagt; GM03813 cells, 24 hours; without compound 0", "method": "as §1"}, "MADD exon 21": {"test_system": "MADD exon 21", "settings": "MADD exon 21, sequence CAGAgtaagg; GM03813 cells, 24 hours; without compound 0", "method": "as §1"}, "COL1A1 exon 11": {"test_system": "COL1A1 exon 11", "settings": "COL1A1 exon 11, sequence CAGAgtgagt; GM03813 cells, 24 hours; without compound 100", "method": "as §1"}, "COL5A2 exon 49": {"test_system": "COL5A2 exon 49", "settings": "COL5A2 exon 49, sequence AAGAgtaagt; GM03813 cells, 24 hours; without compound 90", "method": "as §1"}, "STRN3 exon 8": {"test_system": "STRN3 exon 8", "settings": "STRN3 exon 8, sequence AAGAgtaagt; GM03813 cells, 24 hours; without compound 10", "method": "as §1"}, "COL5A2 exon 34": {"test_system": "COL5A2 exon 34", "settings": "COL5A2 exon 34, sequence CAGAgtaagt; GM03813 cells, 24 hours; without compound 100", "method": "as §1"}, "PARP1 exon 22": {"test_system": "PARP1 exon 22", "settings": "PARP1 exon 22, sequence ACGAgtatcc; GM03813 cells, 24 hours; without compound 100", "method": "as §1"}, "VPS29 exon 2": {"test_system": "VPS29 exon 2", "settings": "VPS29 exon 2, sequence CAGAgtaagt; GM03813 cells, 24 hours; without compound 40", "method": "as §1"}, "COL1A2 exon 30": {"test_system": "COL1A2 exon 30", "settings": "COL1A2 exon 30, sequence AAGAgtaagt; GM03813 cells, 24 hours; without compound 100", "method": "as §1"}, "[2]": {"test_system": "FOXM1 exon 7A (114 nucleotides)", "settings": "sequence ATCAgtaagt, GM03813 cells, 24 hours, without compound 0", "method": "as §1"}, "PRKDC exon 51": {"test_system": "PRKDC exon 51", "settings": "PRKDC exon 51, sequence GCGAgtacgt; GM03813 cells, 24 hours; without compound 100", "method": "as §1"}, "ERGIC3 exon 8": {"test_system": "ERGIC3 exon 8", "settings": "ERGIC3 exon 8, sequence GAGAgtaagt; GM03813 cells, 24 hours; without compound 0", "method": "as §1"}, "FN1 exon 35": {"test_system": "FN1 exon 35", "settings": "FN1 exon 35, sequence GAGAgtaagt; GM03813 cells, 24 hours; without compound 100", "method": "as §1"}, "RCC 1 exon 4": {"test_system": "RCC 1 exon 4", "settings": "RCC 1 exon 4, sequence AGAGgtaaga; GM03813 cells, 24 hours; without compound 90", "method": "as §1"}, "COL1A2 exon 22": {"test_system": "COL1A2 exon 22", "settings": "COL1A2 exon 22, sequence CAGAgtaagt; GM03813 cells, 24 hours; without compound 100", "method": "as §1"}, "GGCT exon 2": {"test_system": "GGCT exon 2", "settings": "GGCT exon 2, sequence ATGAgtaggt; GM03813 cells, 24 hours; without compound 40", "method": "as §1"}, "COL1A1 exon 5": {"test_system": "COL1A1 exon 5", "settings": "COL1A1 exon 5, sequence AGGAgtaagt; GM03813 cells, 24 hours; without compound 0", "method": "as §1"}, "ARMCX6 exon 3": {"test_system": "ARMCX6 exon 3", "settings": "ARMCX6 exon 3, sequence TAGAgtatga; GM03813 cells, 24 hours; without compound 0", "method": "as §1"}, "LARP7 exon 2": {"test_system": "LARP7 exon 2", "settings": "LARP7 exon 2, sequence AAGAgtaaga; GM03813 cells, 24 hours; without compound 10", "method": "as §1"}, "COL5A2 exon 35": {"test_system": "COL5A2 exon 35", "settings": "COL5A2 exon 35, sequence AAGAgtaagt; GM03813 cells, 24 hours; without compound 100", "method": "as §1"}, "COL5A2 exon 32": {"test_system": "COL5A2 exon 32", "settings": "COL5A2 exon 32, sequence TAGAgtaagt; GM03813 cells, 24 hours; without compound 100", "method": "as §1"}, "FADS2 exon 6": {"test_system": "FADS2 exon 6", "settings": "FADS2 exon 6, sequence CTGAgtaagt; GM03813 cells, 24 hours; without compound 100", "method": "as §1"}}}
{"smiles": "CCN1CCC(c2cc(C)c3nc(-c4cc5c(C)nc(C)cn5n4)cc(=O)n3c2)CC1", "note": "[Compound 702]", "values": [{"measurement": "% Inclusion of Exon with Compound", "setting": "DIAPH3 exon 11", "result": "no change"}, {"measurement": "% Inclusion of Exon with Compound", "setting": "COL5A2 exon 13", "result": "no change"}, {"measurement": "% Inclusion of Exon with Compound", "setting": "GALC exon 5", "result": "no change"}, {"measurement": "% Inclusion of Exon with Compound", "setting": "SMN2 exon 5", "result": "no change"}, {"measurement": "% Inclusion of Exon with Compound", "setting": "APLP2 exon 7", "result": 30, "unit": "%"}, {"measurement": "% Inclusion of Exon with Compound", "setting": "LAMA2 exon 5", "result": "no change"}, {"measurement": "% Inclusion of Exon with Compound", "setting": "COL1A1 exon 30", "result": 90, "unit": "%"}, {"measurement": "% Inclusion of Exon with Compound", "setting": "COL1A1 exon 46", "result": "no change"}, {"measurement": "% Inclusion of Exon with Compound", "setting": "PRKDC exon 11", "result": "no change"}, {"measurement": "% Inclusion of Exon with Compound", "setting": "COL1A1 exon 32", "result": "no change"}, {"measurement": "% Inclusion of Exon with Compound", "setting": "COL3A1 exon 10", "result": "no change"}, {"measurement": "% Inclusion of Exon with Compound", "setting": "COL1A2 exon 21", "result": "no change"}, {"measurement": "% Inclusion of Exon with Compound", "setting": "COL3A1 exon 46", "result": "no change"}, {"measurement": "% Inclusion of Exon with Compound", "setting": "SMN2 exon 7", "result": 100, "unit": "%"}, {"measurement": "% Inclusion of Exon with Compound", "setting": "[1]", "result": 90, "unit": "%"}, {"measurement": "% Inclusion of Exon with Compound", "setting": "LARP7 exon 1", "result": 10, "unit": "%"}, {"measurement": "% Inclusion of Exon with Compound", "setting": "MADD exon 21", "result": 5, "unit": "%"}, {"measurement": "% Inclusion of Exon with Compound", "setting": "COL1A1 exon 11", "result": "no change"}, {"measurement": "% Inclusion of Exon with Compound", "setting": "COL5A2 exon 49", "result": "no change"}, {"measurement": "% Inclusion of Exon with Compound", "setting": "STRN3 exon 8", "result": 100, "unit": "%"}, {"measurement": "% Inclusion of Exon with Compound", "setting": "COL5A2 exon 34", "result": "no change"}, {"measurement": "% Inclusion of Exon with Compound", "setting": "PARP1 exon 22", "result": "no change"}, {"measurement": "% Inclusion of Exon with Compound", "setting": "VPS29 exon 2", "result": 100, "unit": "%"}, {"measurement": "% Inclusion of Exon with Compound", "setting": "COL1A2 exon 30", "result": "no change"}, {"measurement": "% Inclusion of Exon with Compound", "setting": "[2]", "result": 10, "unit": "%"}, {"measurement": "% Inclusion of Exon with Compound", "setting": "PRKDC exon 51", "result": "no change"}, {"measurement": "% Inclusion of Exon with Compound", "setting": "ERGIC3 exon 8", "result": 10, "unit": "%"}, {"measurement": "% Inclusion of Exon with Compound", "setting": "FN1 exon 35", "result": "no change"}, {"measurement": "% Inclusion of Exon with Compound", "setting": "RCC 1 exon 4", "result": "no change"}, {"measurement": "% Inclusion of Exon with Compound", "setting": "COL1A2 exon 22", "result": "no change"}, {"measurement": "% Inclusion of Exon with Compound", "setting": "GGCT exon 2", "result": 95, "unit": "%"}, {"measurement": "% Inclusion of Exon with Compound", "setting": "COL1A1 exon 5", "result": "no change"}, {"measurement": "% Inclusion of Exon with Compound", "setting": "ARMCX6 exon 3", "result": "no change"}, {"measurement": "% Inclusion of Exon with Compound", "setting": "LARP7 exon 2", "result": 40, "unit": "%"}, {"measurement": "% Inclusion of Exon with Compound", "setting": "COL5A2 exon 35", "result": "no change"}, {"measurement": "% Inclusion of Exon with Compound", "setting": "COL5A2 exon 32", "result": "no change"}, {"measurement": "% Inclusion of Exon with Compound", "setting": "FADS2 exon 6", "result": "no change"}]}
